Measured values from ChEMBL document CHEMBL1131805, “Synthesis and biological evaluation of analogs of the marine toxin polycavernoside A” (Bioorg Med Chem Lett, 1999).

Key:
Type in all cases: ADME
[1] = Minimal lethal dose in mice causing gradual progressive onset of severe scratching of face and body, spasms, paralysis (30 min after injection), severe eye damage, and death occurring within 24 h; range: 0.38-0.77; conditions: mouse, in vivo
[2] = Minimal lethal dose in mice causing gradual progressive onset of severe scratching of face and body, spasms, paralysis, severe eye damage, and death; range: 1.5-3.1; conditions: mouse, in vivo
[3] = Minimal lethal dose in mice showing no adverse symptoms seen; conditions: mouse, in vivo
[4] = Minimal lethal dose in mice causing no scratching or eye damage, but frenetic jumping, severe spasms, and ultimately paralysis; if death did not occur within 30 min, total recovery was noted; range: 1.5-3.1; conditions: mouse, in vivo, 0.5 h
[5] = Minimal lethal dose in mice causing gradual progressive onset of severe scratching of face and body, spasms, paralysis, severe eye damage, and death; range: 0.2-0.4; conditions: mouse, in vivo

CO[C@@H]1[C@H](O[C@@H]2[C@@H](OC)[C@H](O[C@H]3C[C@H]4CC(=O)[C@@]5(O)O[C@H](C[C@H]5C)C(C)(C)[C@@H](/C=C/C#C/C=C/C(C)C)OC(=O)C[C@H](O4)[C@@H]3C)OC[C@H]2OC)O[C@@H](C)[C@@H](O)[C@@H]1OC
MLD [1]: 0.38 mg/kg

CO[C@@H]1[C@H](O[C@@H]2[C@@H](OC)[C@H](O[C@H]3C[C@H]4CC(=O)[C@@]5(O)O[C@H](C[C@H]5C)C(C)(C)[C@@H](/C=C/C=C/C(C)C)OC(=O)C[C@H](O4)[C@@H]3C)OC[C@H]2OC)O[C@@H](C)[C@@H](O)[C@@H]1OC
MLD [2]: 3.1 mg/kg

COC1C(O)C(C)OC(O[C@H]2C(OC)COC(O[C@H]3C[C@H]4CC(=O)[C@@]5(O)O[C@H](C[C@H]5C)C(C)(C)[C@@H](/C=C/c5ccccc5)OC(=O)C[C@H](O4)[C@@H]3C)[C@@H]2OC)[C@H]1OC (stereo partly drawn)
MLD [3]: > 13 mg/kg

CC(C)/C=C/C=C/C=C/[C@H]1OC(=O)C[C@@H]2O[C@H](CC(=O)[C@@]3(O)O[C@H](C[C@H]3C)C1(C)C)C[C@H](O)[C@H]2C
MLD [4]: 1.5 mg/kg

CO[C@@H]1[C@H](O[C@@H]2[C@@H](OC)[C@H](O[C@H]3C[C@H]4CC(=O)[C@@]5(O)O[C@H](C[C@H]5C)C(C)(C)[C@@H](/C=C/C=C/C5CCCCC5)OC(=O)C[C@H](O4)[C@@H]3C)OC[C@H]2OC)O[C@@H](C)[C@@H](O)[C@@H]1OC
MLD [3]: > 13 mg/kg

C[C@H]1[C@@H]2CC(=O)O[C@H](/C=C/I)C(C)(C)[C@H]3C[C@@H](C)[C@](O)(O3)C(=O)C[C@H](C[C@@H]1O)O2
MLD [3]: > 13 mg/kg

CO[C@@H]1[C@H](O[C@@H]2[C@@H](OC)[C@H](O[C@H]3C[C@H]4CC(=O)[C@@]5(O)O[C@H](C[C@H]5C)C(C)(C)[C@@H](/C=C/C=C/C=C/C(C)C)OC(=O)C[C@H](O4)[C@@H]3C)OC[C@H]2OC)O[C@@H](C)[C@@H](O)[C@@H]1OC [polycavemoside A]
MLD [5]: 0.2 mg/kg

CO[C@@H]1[C@H](OC)[C@H](O[C@@H]2[C@@H](OC)[C@H](O[C@H]3C[C@H]4CC(=O)[C@@]5(O)O[C@H](C[C@H]5C)C(C)(C)[C@@H](/C=C/C=C/C(C)C)OC(=O)C[C@H](O4)[C@@H]3C)OC[C@H]2OC(C)=O)O[C@@H](C)[C@H]1OC [polycavernoside B]
MLD [5]: 0.2 mg/kg
